Measurements from patent publication US20160130278A1 (TAISHO PHARMACEUTICAL CO., LTD, priority 2013, published 2016).

These compounds were tested against T1, human type 1 glycine transporter (GlyT1) (Homo sapiens, UniProt P48067) (assay: Glycine uptake inhibition experiment ([3H]glycine uptake)). Details: GlyT1.
T1 construct: T98G cells (glioma cells) expressing human type 1 glycine transporter (GlyT1) were used
T1 sequence (P48067 1-706): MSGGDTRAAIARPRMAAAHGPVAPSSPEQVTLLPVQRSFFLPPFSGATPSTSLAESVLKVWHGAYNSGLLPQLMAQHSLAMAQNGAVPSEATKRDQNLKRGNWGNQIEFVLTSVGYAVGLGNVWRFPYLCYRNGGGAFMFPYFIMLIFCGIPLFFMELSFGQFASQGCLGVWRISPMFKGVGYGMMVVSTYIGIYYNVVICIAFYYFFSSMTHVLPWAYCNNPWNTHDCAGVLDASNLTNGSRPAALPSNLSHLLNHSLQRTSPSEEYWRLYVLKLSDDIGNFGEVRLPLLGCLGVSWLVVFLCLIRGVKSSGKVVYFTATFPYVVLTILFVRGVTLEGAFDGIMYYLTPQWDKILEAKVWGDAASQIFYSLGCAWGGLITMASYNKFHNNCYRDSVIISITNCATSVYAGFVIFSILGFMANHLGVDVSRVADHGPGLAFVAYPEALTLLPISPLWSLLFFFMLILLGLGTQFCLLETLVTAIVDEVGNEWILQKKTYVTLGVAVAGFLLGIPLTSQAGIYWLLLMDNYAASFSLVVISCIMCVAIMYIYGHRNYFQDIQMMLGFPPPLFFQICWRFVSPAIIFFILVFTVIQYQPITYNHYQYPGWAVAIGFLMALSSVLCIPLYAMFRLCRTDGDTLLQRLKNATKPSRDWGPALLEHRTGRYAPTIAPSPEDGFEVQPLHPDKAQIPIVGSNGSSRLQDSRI
Type: cell-based
In short: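 T98G glioma cells expressing human GlyT1 were pretreated 10 min with compound in HEPES buffer pH 7.4 (0.2% BSA), then incubated with compound plus 250 nM final [3H]glycine for 15 min at room temperature. Intracellular radioactivity was counted after NaOH lysis; 10 μM ALX5407 defined non-specific uptake. IC50 came from 10^−9–10^−5 M curves.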

Structure (SMILES) | IC50 [nM]
O=C(NC(c1cccc(F)c1)C1(O)CCCC1)c1nccc(C(F)(F)F)c1Cl (single isomer, unassigned) [Compound 52, 3-chloro-N-[(3-fluorophenyl)(1-hydroxycyclopentyl)methyl]-4-(trifluoromethyl)pyridine-2-carboxamide] | 100
O=C(NC(c1cccnc1Cl)C1(O)CCC(F)(F)CC1)c1nccc(C(F)(F)F)c1Cl (single isomer, unassigned) [Compound 340, 3-chloro-N-[(2-chloropyridin-3-yl)(4,4-difluoro-1-hydroxycyclohexyl)methyl]-4-(trifluoromethyl)pyridine-2-carboxamide] | 320
CCn1cc(-c2cccc(C(NC(=O)c3cccc(Cl)c3Cl)C3(O)CCC(F)(F)CC3)c2)cn1 (single isomer, unassigned) [Compound 145, 2,3-dichloro-N-{(4,4-difluoro-1-hydroxycyclohexyl)[3-(1-ethyl-1H-pyrazol-4-yl)phenyl]methyl}benzamide] | 670
O=C(NC(c1cccc(Cl)n1)[C@]1(O)CC[C@@H](F)CC1)c1cc(C(F)(F)F)ccc1Cl (single isomer, unassigned) [Compound 362] | 190
O=C(NC(c1cc(F)cc(Cl)c1)C1(O)CCCC1)c1nccc(C(F)(F)F)c1Cl (single isomer, unassigned) [Compound 94, 3-chloro-N-[(3-chloro-5-fluorophenyl)(1-hydroxycyclopentyl)methyl]-4-(trifluoromethyl)pyridine-2-carboxamide] | 110
O=C(N[C@@H](c1cccc(Cl)c1)[C@]1(O)CC[C@@H](F)CC1)c1nccc(C(F)(F)F)c1Cl [Compound 162, 3-chloro-N-[(S)-(3-chlorophenyl)(cis-4-fluoro-1-hydroxycyclohexyl)methyl]-4-(trifluoromethyl)pyridine-2-carboxamide] | 65
O=C(NC(c1cc(Cl)ccc1F)[C@]1(O)CC[C@@H](F)CC1)c1ccnc(C(F)(F)F)c1Cl (single isomer, unassigned) [Compound 376, 3-chloro-N-[(5-chloro-2-fluorophenyl)(cis-4-fluoro-1-hydroxycyclohexyl)methyl]-2-(trifluoromethyl)pyridine-4-carboxamide] | 550
COc1cc(C(F)(F)F)cc(C(F)(F)F)c1C(=O)NC(c1ccccc1)C1(O)CCCC1 (centres unmarked) [Compound 29, N-[(1-hydroxycyclopentyl)(phenyl)methyl]-2-methoxy-4,6-bis(trifluoromethyl)benzamide] | 2000
CCn1cc(-c2cccc(C(NC(=O)c3cccc(C)c3Cl)C3(O)CCC(F)(F)CC3)c2)cn1 (centres unmarked) [Compound 126, 2-chloro-N-{(4,4-difluoro-1-hydroxycyclohexyl)[3-(1-ethyl-1H-pyrazol-4-yl)phenyl]methyl}-3-methylbenzamide] | 720
O=C(NC(c1cccc(-c2cnn(CC(F)(F)F)c2)c1)C1(O)CCC(F)(F)CC1)c1nccc(C(F)(F)F)c1Cl (single isomer, unassigned) [Compound 135, 3-chloro-N-[(4,4-difluoro-1-hydroxycyclohexyl){3-[1-(2,2,2-trifluoroethyl)-1H-pyrazol-4-yl]phenyl}methyl]-4-(trifluoromethyl)pyridine-2-carboxamide] | 72
O=C(N[C@H](c1cccc(Br)c1)C1(O)CCCC1)c1nccc(C(F)(F)F)c1Cl [Compound 34, N-[(R)-(3-bromophenyl)(1-hydroxycyclopentyl)methyl]-3-chloro-4-(trifluoromethyl)pyridine-2-carboxamide] | 1000
CCn1cc(-c2cccc(C(NC(=O)c3cccc(Cl)c3C(F)(F)F)C3(O)CCC(F)(F)CC3)c2)cn1 (centres unmarked) [Compound 208, 3-chloro-N-{(4,4-difluoro-1-hydroxycyclohexyl)[3-(1-ethyl-1H-pyrazol-4-yl)phenyl]methyl}-2-(trifluoromethyl)benzamide] | 1300
O=C(NC(c1cccc(F)c1Cl)[C@]1(O)CC[C@@H](F)CC1)c1cc(C(F)(F)F)ccc1-n1nccn1 (single isomer, unassigned) [Compound 381, N-[-(2-chloro-3-fluorophenyl)(cis-4-fluoro-1-hydroxycyclohexyl)methyl]-2-(2H-1,2,3-triazol-2-yl)-5-(trifluoromethyl)benzamide] | 1200
O=C(NC(c1ccccc1Cl)[C@]1(O)CC[C@@H](F)CC1)c1ccnc(C(F)(F)F)c1Cl (single isomer, unassigned) [Compound 211, 3-chloro-N-[(2-chlorophenyl)(cis-4-fluoro-1-hydroxycyclohexyl)methyl]-2-(trifluoromethyl)pyridine-4-carboxamide] | 170
O=C(NC(c1cccc(Cl)n1)C1(O)CCC(F)(F)CC1)c1cc(C(F)(F)F)cnc1Cl (single isomer, unassigned) [Compound 354, 2-chloro-N-[(6-chloropyridin-2-yl)(4,4-difluoro-1-hydroxycyclohexyl)methyl]-5-(trifluoromethyl)pyridine-3-carboxamide] | 220
NC(=O)c1cccc(C(NC(=O)c2nccc(C(F)(F)F)c2Cl)C2(O)CCCC2)c1 (centres unmarked) [Compound 106, N-[(3-carbamoylphenyl)(1-hydroxycyclopentyl)methyl]-3-chloro-4-(trifluoromethyl)pyridine-2-carboxamide] | 900
O=C(NC(c1ccc(F)cc1Cl)C1(O)CCCC1)c1nccc(C(F)(F)F)c1Cl (single isomer, unassigned) [Compound 100, 3-chloro-N-[(2-chloro-4-fluorophenyl)(1-hydroxycyclopentyl)methyl]-4-(trifluoromethyl)pyridine-2-carboxamide] | 59
[2H]C1([2H])C([2H])([2H])C([2H])([2H])C(O)(C(NC(=O)c2nccc(C(F)(F)F)c2Cl)c2cccc(Cl)c2)C([2H])([2H])C1([2H])[2H] (single isomer, unassigned) [Compound 231, 3-chloro-N-{(3-chlorophenyl)[1-hydroxy(^2H10)cyclohexyl]methyl}-4-(trifluoromethyl)pyridine-2-carboxamide] | 40
O=C(NC(c1cc(Cl)ccn1)C1(O)CCC(F)(F)CC1)c1cc(C(F)(F)F)cnc1Cl (single isomer, unassigned) [Compound 360, 2-chloro-N-[(4-chloropyridin-2-yl)(4,4-difluoro-1-hydroxycyclohexyl)methyl]-5-(trifluoromethyl)pyridine-3-carboxamide] | 520
COc1cccc(C(NC(=O)c2nccc(C(F)(F)F)c2Cl)C2(O)CCCC2)c1 (single isomer, unassigned) [Compound 57, 3-chloro-N-[(1-hydroxycyclopentyl)(3-methoxyphenyl)methyl]-4-(trifluoromethyl)pyridine-2-carboxamide] | 150
O=C(N[C@@H](c1cccc(Cl)c1)[C@]1(O)CC[C@@H](F)CC1)c1cc(C(F)(F)F)ncc1Cl [Compound 227, 5-chloro-N-[(S)-(3-chlorophenyl)(cis-4-fluoro-1-hydroxycyclohexyl)methyl]-2-(trifluoromethyl)pyridine-4-carboxamide] | 510
O=C(NC(c1ccccc1Cl)C1(O)CCC(F)(F)CC1)c1ccnc(C(F)(F)F)c1Cl (single isomer, unassigned) [Compound 155, 3-chloro-N-[(2-chlorophenyl)(4,4-difluoro-1-hydroxycyclohexyl)methyl]-2-(trifluoromethyl)pyridine-4-carboxamide] | 170
O=C(NC(c1cccc(F)c1F)C1(O)CCC(F)(F)CC1)c1ccnc(C(F)(F)F)c1Cl (single isomer, unassigned) [Compound 165, 3-chloro-N-[(4,4-difluoro-1-hydroxycyclohexyl)(2,3-difluorophenyl)methyl]-2-(trifluromethyl)pyridine-4-carboxamide] | 210
O=C(NC(c1cccc(Cl)c1Cl)C1(O)CCC(F)(F)CC1)c1nccc(C(F)(F)F)c1Cl (single isomer, unassigned) [Compound 136, 3-chloro-N-[(2,3-dichlorophenyl)(4,4-difluoro-1-hydroxycyclohexyl)methyl]-4-(trifluoromethyl)pyridine-2-carboxamide] | 3700
O=C(NC(c1cccnc1Cl)[C@]1(O)CC[C@@H](F)CC1)c1cccc(C(F)(F)F)c1Cl (single isomer, unassigned) [Compound 322, 2-chloro-N-[(2-chloropyridin-3-yl)(cis-4-fluoro-1-hydroxycyclohexyl)methyl]-3-(trifluoromethyl)benzamide] | 350

Same assay, conditions: human GlyT1

Structure (SMILES) | IC50 [nM]
CS(=O)(=O)c1cc(C(F)(F)F)ccc1C(=O)NC(c1cccc(F)c1Cl)C1(O)CCC(F)(F)CC1 (single isomer, unassigned) [Compound 401, N-[(2-chloro-3-fluorophenyl)(4,4-difluoro-1-hydroxycyclohexyl)methyl]-2-(methylsulfonyl)-4-(trifluoromethyl)benzamide] | 230
